Test results from PMC7363806, “Characterization of Corosolic Acid as a KPC-2 Inhibitor That Increases the Susceptibility of KPC-2-Positive Bacteria to Carbapenems” (Frontiers in Pharmacology, 2020).

Biological target: T1, KPC-2 (Klebsiella pneumoniae, UniProt Q9F663)
T1 construct: recombinant KPC-2 from pET28a (bla KPC-2 gene, NCBI NG_049253.1), expressed in E. coli BL21(DE3), Ni column purified
Test: nitrocefin hydrolysis assay with purified KPC-2, absorbance at […] nm
Type: biochemical

T1 sequence (Q9F663 25-293 limits assumed): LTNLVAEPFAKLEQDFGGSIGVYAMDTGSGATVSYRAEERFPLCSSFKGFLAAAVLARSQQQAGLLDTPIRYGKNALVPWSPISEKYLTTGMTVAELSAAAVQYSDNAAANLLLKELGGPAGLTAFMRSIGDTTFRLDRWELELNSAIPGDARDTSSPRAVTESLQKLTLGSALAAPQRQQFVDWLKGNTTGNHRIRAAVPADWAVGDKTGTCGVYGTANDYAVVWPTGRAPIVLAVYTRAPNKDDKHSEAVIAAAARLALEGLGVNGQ

C[C@H]1[C@H](C)CC[C@]2(C(=O)O)CC[C@]3(C)C(=CC[C@@H]4[C@@]5(C)C[C@@H](O)[C@H](O)C(C)(C)[C@@H]5CC[C@]43C)[C@H]12 [CA, corosolic acid]
IC50: 4.97 µM
